# Measured values as given in patent publication US20210317092A1 (BAYER PHARMA AKTIENGESELLSCHAFT, priority 2016, published 2021).
# Read-outs that look alike come from different tables or passages of the source.
# Columns and labels:
# [1] = biological target: T1, human Bradykinin B1 receptor (Homo sapiens, UniProt P46663); test: Calcium flux Assay (FLIPR) with recombinant CHO-K1 cells expressing human Bradykinin B1 receptor, in presence (hB1 IC50) or absence (hB1 free IC50) of 0.1% BSA; assay type: cell-based
# T1 construct: host or cells: CHO-K1
# T1 sequence (P46663 1-353): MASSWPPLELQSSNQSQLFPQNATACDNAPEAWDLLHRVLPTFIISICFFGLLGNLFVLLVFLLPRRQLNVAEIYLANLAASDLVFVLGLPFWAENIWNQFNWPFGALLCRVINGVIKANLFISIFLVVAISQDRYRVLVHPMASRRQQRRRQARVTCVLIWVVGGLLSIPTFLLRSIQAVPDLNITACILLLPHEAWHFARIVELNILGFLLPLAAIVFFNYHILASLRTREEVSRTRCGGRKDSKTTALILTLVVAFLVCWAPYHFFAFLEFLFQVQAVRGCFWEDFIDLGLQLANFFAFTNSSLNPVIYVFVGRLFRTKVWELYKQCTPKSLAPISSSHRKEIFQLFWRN
# [2] = biological target: T2, native human Bradykinin B1 receptor (Homo sapiens, UniProt P46663); test: Calcium flux Assay (FLIPR) with human fibroblasts expressing Bradykinin B1 receptor (hB1 IMR-90); assay type: cell-based; conditions: IMR-90 human fibroblasts expressing native Bradykinin B1 receptor
# T2 construct: which express native human Bradykinin B1 receptor after induction with human IL-10; Coriell Institute; host or cells: IMR-90 human foetal lung fibroblasts, cytokine-induced
# T2 sequence (P46663 1-353): T1 sequence (P46663 1-353)
# Procedure: Calcium flux Assay (FLIPR) with human fibroblasts expressing Bradykinin B1 receptor (hB1 IMR-90)
# The Calcium flux Assay was carried out utilising IMR-90 human foetal lung fibroblasts (American Type Culture Collection, Rockville, Md.; and Coriell Institute, Camden, N.J.), which express native human Bradykinin B1 receptor after induction with human […].
# The fibroblasts were cultured in complete growth media comprised of Dulbecco's modified Eagle's medium (DMEM; Sigma) containing 10% foetal bovine serum, 4 mM L-glutamine, and 1% nonessential amino acids. The cells were maintained in a humidified atmosphere with 5% CO2 at 37° C. and were sub-cultured at a ratio of 1:3, every other day.
# For the assay, IMR-90 fibroblasts were harvested using TrypLE Express (GIBCO/Invitrogen) and seeded into 384-well plates (Corning Cellbinding Surface, Cat. 3683) at a density of 15000 cells/well. The following day, cells were treated with 0.35 ng/mL human […] in 10% FBS/MEM for 3h to up-regulate Bradykinin B1 receptor. Induced cells were loaded with fluorescent calcium indicator by incubation with 2.5 μM Fluo-4/AM (Invitrogen) at 37° C., 5% CO2 for 2 h in the presence of 2.5 mM probenecid in 1% FBS/MEM. Extracellular dye was removed by washing with assay buffer (2.5 mM probenecid and 0.1% BSA in 20 mM HEPES/HBSS without bicarbonate or phenol red, pH 7.5). Compound examples were assayed at 8 concentrations in triplicate. After addition of compound examples to the cell plate and incubation for 30 min at 28° C., the addition of Bradykinin B1 agonist Lys-(Des-Arg)-Bradykinin (Bachem, Brackley) at a final concentration of EC90 was carried out on the FLIPR instrument while continuously monitoring Ca^2+-dependent fluorescence at 538 nm. A peptide antagonist Lys-(Des-Arg-Leu)-Bradykinin (Bachem, Brackley) at 20 µM was used to determine the full inhibition as control. IC50 values were determined by the same way described for the FLIPR assay with recombinant cells.
# [3] = in absence of 0.1% BSA, read-out: hB1 free IC50
# [4] = in presence of 0.1% BSA, read-out: hB1 IC50
SMILES,"IC50 [1, 3] [nM]","IC50 [1, 4] [nM]",IC50 [2] [nM]
"CCOc1ccc(-c2ccc(NC(=O)C3(c4ccc(F)cc4F)CC3)cc2-c2nnn[nH]2)cn1 [Example 101, 1-(2,4-difluorophenyl)-N-[4-(6-ethoxypyridin-3-yl)-3-(1H-tetrazol-5-yl)phenyl] cyclopropane-carboxamide]",24.5,38.7,22.1
"CCOc1ccc(-c2ccc(NC(=O)C3(c4ccc(F)c(C)c4)CC3)cc2-c2nnn[nH]2)cn1 [Example 102, N-[4-(6-ethoxypyridin-3-yl)-3-(1H-tetrazol-5-yl]phenyl]-1-(4-fluoro-3-methylphenyl) cyclopropane-carboxamide]",,34.8,21
"CCCOc1ccc(-c2ccc(NC(=O)C3(c4cccc(Cl)c4)CC3)cc2-c2nnn[nH]2)cn1 [Example 110, 1-(3-chlorophenyl)-N-[4-(6-propoxypyridin-3-yl)-3-(1H-tetrazol-5-yl)phenyl] cyclopropane-carboxamide]",5.68,12.7,11
"CCCOc1ccc(-c2ccc(NC(=O)C3(c4ccc(F)cc4F)CC3)cc2-c2nnn[nH]2)cn1 [Example 112, 1-(2,4-difluorophenyl)-N-[4-(6-propoxypyridin-3-yl)-3-(1H-tetrazol-5-yl)phenyl] cyclopropane-carboxamide]",16.2,44.9,20.4
"CCOc1ccc(-c2ccc(NC(=O)C3(c4cccc(C(F)(F)F)c4)CC3)cc2-c2nnn[nH]2)cc1OC [Example 120, N-[4′-ethoxy-3′-methoxy-2-(1H-tetrazol-5-yl)biphenyl-4-yl]-1-[3-(trifluoromethyl)phenyl] cyclopropane-carboxamide]",,30.6,25.1
"COCc1ccc(-c2ccc(NC(=O)C3(c4ccc(C(F)(F)F)cc4)CC3)cc2-c2nnn[nH]2)cn1 [Example 126, N-{4-[6-(methoxymethyl)pyridin-3-yl]-3-(1H-tetrazol-5-yl)phenyl}-1-[4-(trifluoromethyl)phenyl] cyclopropane-carboxamide]",,21.9,13.1
"COCc1ccc(-c2ccc(NC(=O)C3(c4ccc(F)cc4F)CC3)cc2-c2nnn[nH]2)cn1 [Example 127, 1-(2,4-difluorophenyl)-N-{4-[6-(methoxymethyl)pyridin-3-yl]-3-(1H-tetrazol-5-yl)phenyl} cyclopropane-carboxamide]",88.6,90.9,27.9
"O=C(Nc1ccc(-c2ccc(C(F)(F)F)cc2)c(-c2nnn[nH]2)c1)C1(c2cccc(Cl)c2)CC1 [Example 128, 1-(3-chlorophenyl)-N-[2-(1H-tetrazol-5-yl)-4′-(trifluoromethyl)biphenyl-4-yl]cyclopropane carboxamide]",2.68,137,63.3
"O=C(Nc1ccc(-c2ccc(C(F)(F)F)nc2)c(-c2nnn[nH]2)c1)C1(c2cccc(Cl)c2)CC1 [Example 135, 1-(3-chlorophenyl)-N-{3-(1H-tetrazol-5-yl)-4-[6-(trifluoromethyl)pyridin-3-yl]phenyl} cyclopropane-carboxamide]",58.7,516,91.8
"O=C(Nc1ccc(-c2ccc(C(F)(F)F)nc2)c(-c2nnn[nH]2)c1)C1(c2ccc(OC(F)(F)F)cc2)CC1 [Example 136, N-{3-(1H-tetrazol-5-yl)-4-[6-(trifluoromethyl)pyridin-3-yl]phenyl}-1-[4-(trifluoromethoxy)phenyl] cyclopropane-carboxamide]",165,,15.7
"O=C(Nc1ccc(-c2ccc(C(F)(F)F)nc2)c(-c2nnn[nH]2)c1)C1(c2ccc(F)c(Cl)c2)CC1 [Example 139, 1-(3-chloro-4-fluorophenyl)-N-{3-(1H-tetrazol-5-yl)-4-[6-(trifluoromethyl)pyridin-3-yl]phenyl} cyclopropane-carboxamide]",22.6,,91
"O=C(Nc1ccc(-c2ccc(C(F)(F)F)nc2)c(-c2nnn[nH]2)c1)C1(c2ccc(C(F)(F)F)cc2)CC1 [Example 140, N-{3-(1H-tetrazol-5-yl)-4-[6-(trifluoromethyl)pyridin-3-yl]phenyl}-1-[4-(trifluoromethyl)phenyl] cyclopropane-carboxamide]",42.1,,85.1
"O=C(Nc1ccc(-c2ccc(C(F)(F)F)nc2)c(-c2nnn[nH]2)c1)C1(c2cc(F)ccc2F)CC1 [Example 141, 1-(2,5-difluorophenyl)-N-{3-(1H-tetrazol-5-yl)-4-[6-(trifluoromethyl)pyridin-3-yl]phenyl} cyclopropane-carboxamide]",224,,141
"O=C(Nc1ccc(-c2ccc(C(F)(F)F)nc2)c(-c2nnn[nH]2)c1)C1(c2cccc(C(F)(F)F)c2)CC1 [Example 144, N-{3-(1H-tetrazol-5-yl)-4-[6-(trifluoromethyl)pyridin-3-yl]phenyl}-1-[3-(trifluoromethyl)phenyl] cyclopropane-carboxamide]",300,,289

# Further compounds by falling IC50 [2], results first:
"IC50 [1, 3] [nM]","IC50 [1, 4] [nM]",IC50 [2] [nM],SMILES
51.3,,102,"O=C(Nc1ccc(-c2ccc(C(F)(F)F)nc2)c(-c2nnn[nH]2)c1)C1(c2cccc(Cl)c2F)CC1 [Example 138, 1-(3-chloro-2-fluorophenyl)-N-{3-(1H-tetrazol-5-yl)-4-[6-(trifluoromethyl)pyridin-3-yl]phenyl} cyclopropane-carboxamide]"
17.1,,43.9,"O=C(Nc1ccc(-c2ccc(C(F)(F)F)nc2)c(-c2nnn[nH]2)c1)C1(c2ccc(Cl)c(F)c2)CC1 [Example 137, 1-(4-Chloro-3-fluorophenyl)-N-{3-(1H-tetrazol-5-yl)-4-[6-(trifluoromethyl)pyridin-3-yl]phenyl} cyclopropane-carboxamide]"
,56.5,28.7,"CCOc1ccc(-c2ccc(NC(=O)C3(c4ccc(F)cc4F)CC3)cc2-c2nnn[nH]2)cc1OC [Example 122, 1-(2,4-difluorophenyl)-N-[4′-ethoxy-3′-methoxy-2-(1H-tetrazol-5-yl)biphenyl-4-yl]cyclopropane carboxamide]"
23.3,13.8,26,"COCc1ccc(-c2ccc(NC(=O)C3(c4cccc(Cl)c4)CC3)cc2-c2nnn[nH]2)cn1 [Example 125, 1-(3-chlorophenyl)-N-{4-[6-(methoxymethyl)pyridin-3-yl]-3-(1H-tetrazol-5-yl)phenyl} cyclopropane-carboxamide]"
,28.2,19.4,CCOc1ccc(-c2ccc(NC(=O)C3(c4ccc(C(F)(F)F)cc4)CC3)cc2-c2nnn[nH]2)cc1OC [Example 121]
2.88,22.7,13.1,"CCOc1ccc(-c2ccc(NC(=O)C3(c4cccc(Cl)c4)CC3)cc2-c2nnn[nH]2)cc1OC [Example 119, 1-(3-chlorophenyl)-N-[4′-ethoxy-3′-methoxy-2-(1H-tetrazol-5-yl)biphenyl-4-yl]cyclopropane carboxamide]"
4.54,10.9,10.7,"CCOc1ccc(-c2ccc(NC(=O)C3(c4ccc(C(F)(F)F)cc4)CC3)cc2-c2nnn[nH]2)cn1 [Example 105, N-[4-(6-ethoxypyridin-3-yl)-3-(1H-tetrazol-5-yl)phenyl]-1-[4-(trifluoromethyl)phenyl] cyclopropane-carboxamide]"
4.98,16.6,10.6,"CCCOc1ccc(-c2ccc(NC(=O)C3(c4ccc(C(F)(F)F)cc4)CC3)cc2-c2nnn[nH]2)cn1 [Example 111, N-[4-(6-propoxypyridin-3-yl)-3-(1H-tetrazol-5-yl)phenyl]-1-[4-(trifluoromethyl)phenyl] cyclopropane-carboxamide]"
5.56,20.2,8.84,"CCOc1ccc(-c2ccc(NC(=O)C3(c4ccc(Cl)cc4)CC3)cc2-c2nnn[nH]2)cn1 [Example 100, 1-(4-chlorophenyl)-N-[4-(6-ethoxypyridin-3-yl)-3-(1H-tetrazol-5-yl)phenyl] cyclopropane-carboxamide]"
